This is an account of results in publication PMC9572521, “Synthesis, Docking Studies and Pharmacological Evaluation of Serotoninergic Ligands Containing a 5-Norbornene-2-Carboxamide Nucleus” (Molecules, 2022).

Assay [1] relates to 5-HT2A receptors (5-HT-induced contractions in the rat ileum). As to the kind of experiment: 5-HT-evoked contractions of isolated rat ileum. The settings on record: for Emax, maximal inhibitory effect on 5-HT-induced contractions in the rat ileum: 5-HT 10^−5 M, compounds 10^−8–10^−5 M.
Assay [2] has as its target T1, D2 receptor (Rattus norvegicus, UniProt P61169).
T1 construct: 15μg/mL of striatal homogenate was incubated in triplicate; from tissue; host or cells: rat striatum homogenate
As to the kind of experiment: Functional D2 receptor [35S]GTPγS assay (antagonist mode vs dopamine; basal for agonism).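 Further: [35S]GTPγS binding counted by scintillation after 60 min at 30 °C, nonspecific binding defined with 100 µM unlabeled GTPγS, inhibition curves fitted by one-site nonlinear regression.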 It is filed as biochemical. The settings on record: against 40 µM dopamine, rat striatal homogenate.

Assay [3] deals with T2, 5-HT1A receptor (Rattus norvegicus, UniProt P19327).
T2 construct: 15 μg/mL of hippocampus homogenate was incubated in triplicate with 0.8 nM; from tissue; host or cells: rat hippocampus homogenate
T2 sequence (P19327 1-422): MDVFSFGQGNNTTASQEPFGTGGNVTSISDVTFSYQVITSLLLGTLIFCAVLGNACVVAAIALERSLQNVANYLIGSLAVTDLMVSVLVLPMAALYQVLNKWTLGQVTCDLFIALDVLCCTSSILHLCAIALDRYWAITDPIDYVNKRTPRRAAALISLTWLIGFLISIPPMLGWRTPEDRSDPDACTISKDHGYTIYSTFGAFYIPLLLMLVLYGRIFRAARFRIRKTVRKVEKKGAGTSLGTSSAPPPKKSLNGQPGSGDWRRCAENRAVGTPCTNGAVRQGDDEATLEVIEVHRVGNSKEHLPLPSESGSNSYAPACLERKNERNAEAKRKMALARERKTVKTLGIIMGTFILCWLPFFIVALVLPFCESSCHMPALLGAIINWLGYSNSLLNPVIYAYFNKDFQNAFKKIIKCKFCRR
As to the kind of experiment: Functional 5-HT1A receptor [35S]GTPγS assay (agonist mode).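 On all read-outs here: male Sprague-Dawley rat hippocampal membranes incubated 90 min at 37 °C, bound label counted by scintillation after filtration, non-specific binding defined with 100 µM unlabeled GTPγS, one-site curve fit.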 Particulars: [35S]GTPγS; for Emax: read-out: 5-HT1A Receptor G-Protein Stimulation Emax (%) ± SEM; for agonist activity at the 5-HT1A receptor: result in words. It is filed as biochemical.

The target of assay [4] is 5-HT2A receptor (Rattus norvegicus, UniProt P14842). Put plainly: 5-HT2A competition binding assay ([3H]ketanserin, frontal cortex homogenates).
Chain of 5-HT2A receptor (P14842 whole entry): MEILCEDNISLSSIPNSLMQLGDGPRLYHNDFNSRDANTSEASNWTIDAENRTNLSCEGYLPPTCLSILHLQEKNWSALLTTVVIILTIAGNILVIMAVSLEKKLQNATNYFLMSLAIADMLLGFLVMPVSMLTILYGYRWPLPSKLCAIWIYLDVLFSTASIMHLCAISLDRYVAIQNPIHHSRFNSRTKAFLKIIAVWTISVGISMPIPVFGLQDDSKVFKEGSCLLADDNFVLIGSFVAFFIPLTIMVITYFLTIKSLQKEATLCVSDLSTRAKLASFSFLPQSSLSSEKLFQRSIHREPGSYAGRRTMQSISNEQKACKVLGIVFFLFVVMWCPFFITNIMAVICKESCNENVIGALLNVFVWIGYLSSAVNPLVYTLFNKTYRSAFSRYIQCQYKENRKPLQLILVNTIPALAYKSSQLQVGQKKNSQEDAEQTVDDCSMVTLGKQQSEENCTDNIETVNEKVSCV
Assay [5] has as its target T3, human 5-HT2C receptor (Homo sapiens, UniProt P28335).
T3 sequence (P28335 33-458): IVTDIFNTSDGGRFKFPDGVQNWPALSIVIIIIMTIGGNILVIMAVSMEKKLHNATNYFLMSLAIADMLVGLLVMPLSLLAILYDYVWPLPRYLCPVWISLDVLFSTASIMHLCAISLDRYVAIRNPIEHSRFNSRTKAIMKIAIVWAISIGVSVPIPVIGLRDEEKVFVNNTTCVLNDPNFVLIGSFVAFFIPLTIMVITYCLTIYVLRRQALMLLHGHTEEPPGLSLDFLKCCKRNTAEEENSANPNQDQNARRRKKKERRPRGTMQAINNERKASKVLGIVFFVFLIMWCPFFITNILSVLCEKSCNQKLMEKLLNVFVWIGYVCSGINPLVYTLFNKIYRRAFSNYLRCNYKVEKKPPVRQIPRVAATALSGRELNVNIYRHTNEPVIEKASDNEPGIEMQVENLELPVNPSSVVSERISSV
As to the kind of experiment: 5-HT2C competition binding assay ([3H]mesulergine, transfected cell membranes). Particulars: [3H]mesulergine, human 5-HT2C membranes.

Where [6] appears, read: read-out: D2 receptor antagonistic activity IC50 (95% CI).
[7] abbreviates: read-out: D2 receptor antagonistic activity pIC50 (M ± SEM) (converted).
[8] abbreviates: rat hippocampus homogenate, ± SEM, read-out: 5-HT1A Receptor G-Protein Stimulation pEC50 (converted).
[9] abbreviates: rat hippocampus homogenate, read-out: 5-HT1A Receptor G-Protein Stimulation EC50 (95% CI).
The mark [10] stands for this setting: ± SEM, read-out: 5-HT2C pKi (converted).
Setting [11] is: ± SEM, read-out: 5-HT2A pKi (converted).
The mark [12] stands for this setting: rat hippocampus homogenate, ± SEM.

Where two headings read alike, the source gives them in different places.

T1 sequence (P61169 whole entry): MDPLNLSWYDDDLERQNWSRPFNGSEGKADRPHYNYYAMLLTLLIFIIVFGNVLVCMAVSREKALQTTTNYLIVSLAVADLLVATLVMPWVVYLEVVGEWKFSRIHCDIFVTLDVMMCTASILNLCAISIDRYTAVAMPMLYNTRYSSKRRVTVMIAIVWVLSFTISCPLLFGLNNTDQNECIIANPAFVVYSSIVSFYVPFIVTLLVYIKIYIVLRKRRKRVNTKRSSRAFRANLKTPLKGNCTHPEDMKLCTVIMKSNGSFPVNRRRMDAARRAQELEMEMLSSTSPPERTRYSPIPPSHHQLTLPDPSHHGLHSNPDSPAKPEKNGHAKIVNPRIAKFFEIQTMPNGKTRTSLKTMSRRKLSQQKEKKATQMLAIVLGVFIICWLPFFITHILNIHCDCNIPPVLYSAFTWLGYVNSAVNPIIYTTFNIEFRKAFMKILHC

Consider `COc1ccccc1N1CCN(CCCNC(=O)C2CC3C=CC2C3)CC1` (single isomer, unassigned) [Norbo-5, Exo-N-(3-(4-(2-methoxyphenyl)piperazin-1-yl)propyl)bicyclo[2.2.1]hept-5-ene-2-carboxamide], for which the “Emax, maximal inhibitory effect on 5-HT-induced contractions in the rat ileum” value (from here on “Emax, maximal inhibitory effect”) in assay [1] amounted to 15.42%. For the same compound, the values for the IC50 in assay [2] (setting [6]) and in assay [2] (setting [7]) were 33400 nM and 33900 nM, respectively. For the same compound, the “5-HT1A Receptor G-Protein Stimulation Emax (%) ± SEM” value in assay [3] (rat hippocampus homogenate) is reported as 140 ± 25.2 ^&& %. Moreover, the EC50 in assay [3] (setting [8]) was 10000 nM. In addition, the figures for the Ki in assay [4] (read-out: 5-HT2A Ki (95% CI)) and in assay [5] (read-out: 5-HT2C Ki (95% CI)) were 45.7 nM and 1820 nM, respectively.

As for `O=C(c1ccc(F)cc1)C1CCN(CCn2c(=O)[nH]c3ccccc3c2=O)CC1` [Ketanserin, reference compound], in assay [1] (preliminary experiments, 0.1 µM), the “effect on contractions induced by 5-HT” value is recorded as “depressed the contractions induced by 5-HT”.

With `O=C(NCCCN1CCN(c2ccccc2F)CC1)C1CC2C=CC1C2` (stereo not drawn) [Norbo-16, endo.-N-(3-(4-(2-fluorophenyl)piperazin-1-yl)propyl)bicyclo[2.2.1]hept-5-ene-2-carboxamide], the “Emax, maximal inhibitory effect” value in assay [1] is listed as 23.47%. Further, the IC50 in assay [2] (setting [6]) came to 41500 nM. In addition, the “5-HT1A Receptor G-Protein Stimulation Emax (%) ± SEM” value in assay [3] (rat hippocampus homogenate) was 182 ± 5.5 **^,# %. Further, the EC50 in assay [3] (setting [9]) is 939 nM. For the same compound, the Ki came to 73.3 nM in assay [4] (read-out: 5-HT2A Ki (95% CI)) and 1540 nM in assay [5] (read-out: 5-HT2C Ki (95% CI)).

With `O=C(NCCCN1CCN(c2ccc(F)cc2)CC1)C1CC2C=CC1C2` (stereo not drawn) [Norbo-17, Exo-N-(3-(4-(4-fluorophenyl)piperazin-1-yl)propyl)bicyclo[2.2.1]hept-5-ene-2-carboxamide], the “Emax, maximal inhibitory effect” value in assay [1] is on record as 32.50%. The IC50 in assay [2] (setting [6]) is 59500 nM; in assay [2] (setting [7]), 60300 nM. For the same compound, the “5-HT1A Receptor G-Protein Stimulation Emax (%) ± SEM” value in assay [3] (rat hippocampus homogenate) is listed as 122 ± 2.0 ^&&& %. Besides, the EC50 is 553 nM in assay [3] (setting [9]) and 631 nM in assay [3] (setting [8]). The Ki in assay [4] (read-out: 5-HT2A Ki (95% CI)) is 22.7 nM; in assay [5] (read-out: 5-HT2C Ki (95% CI)), 2360 nM; in assay [5] (setting [10]), 2400 nM.

Turning to `O=C(NCCCN1CCN(c2cccc(C(F)(F)F)c2)CC1)C1CC2C=CC1C2` (stereo not drawn) [Norbo-19, Exo-N-(3-(4-(3-(trifluoromethyl)phenyl)piperazin-1-yl)propyl)bicyclo[2.2.1]hept-5-ene-2-carboxamide], the “Emax, maximal inhibitory effect” value in assay [1] was 39.00%. The IC50 in assay [2] (setting [6]) worked out at 144000 nM. The Emax in assay [3] (rat hippocampus homogenate) turned out to be 162 ± 2.1%. Moreover, the EC50 in assay [3] (setting [8]) was 316 nM. Besides, the Ki in assay [4] (read-out: 5-HT2A Ki (95% CI)) was found to be 42.6 nM; in assay [5] (read-out: 5-HT2C Ki (95% CI)), 167 nM.

Regarding `O=C(NCCCN1CCN(c2cccc(C(F)(F)F)c2)CC1)C1CC2C=CC1C2` (stereo not drawn) [Norbo-20, endo-N-(3-(4-(3-(trifluoromethyl)phenyl)piperazin-1-yl)propyl)bicyclo[2.2.1]hept-5-ene-2-carboxamide], in assay [1], the “Emax, maximal inhibitory effect” value is 21.79%. Also, the IC50 in assay [2] (setting [6]) was 52700 nM; in assay [2] (setting [7]), 56200 nM. For the same compound, the “5-HT1A Receptor G-Protein Stimulation Emax (%) ± SEM” value in assay [3] (rat hippocampus homogenate) is 167 ± 1.4 %. For the same compound, in assay [3] (setting [8]), the EC50 was 200 nM. For the same compound, the Ki in assay [4] (read-out: 5-HT2A Ki (95% CI)) is 22.9 nM; in assay [5] (read-out: 5-HT2C Ki (95% CI)), 1950 nM.

Take `O=C(NCCCN1CCN(c2ncccn2)CC1)C1CC2C=CC1C2` (stereo not drawn) [Norbo-24, endo-N-(3-(4-(pyrimidin-2-yl)piperazin-1-yl)propyl)bicyclo[2.2.1]hept-5-ene-2-carboxamide]: the IC50 in assay [2] (setting [6]) was 206000 nM. Further, the “5-HT1A Receptor G-Protein Stimulation Emax (%) ± SEM” value in assay [3] (rat hippocampus homogenate) is 177 ± 6.1 %. In addition, the EC50 in assay [3] (setting [9]) was 1720 nM. The Ki is 1380 nM in assay [4] (setting [11]), 211 nM in assay [5] (read-out: 5-HT2C Ki (95% CI)) and 214 nM in assay [5] (setting [10]).

Turning to `O=C(NCCCN1CCN(Cc2ccc3c(c2)OCO3)CC1)C1CC2C=CC1C2` (stereo not drawn) [Norbo-25, Exo-N-(3-(4-(benzo[d][1,3]dioxol-5-ylmethyl)piperazin-1-yl)propyl)bicyclo[2.2.1]hept-5-ene-2-carboxamide], the “D2 receptor antagonistic activity IC50 (95% CI, µM)” value in assay [2] was “no activity”. In addition, the “D2 receptor antagonistic activity pIC50 (M ± SEM)” value in assay [2] is reported as “no activity”. Besides, in assay [3] (setting [9]), the EC50 turned out to be 1910 nM. Moreover, the Emax in assay [3] (rat hippocampus homogenate) came to 184 ± 6.4%. Moreover, the Ki in assay [4] (setting [11]) is 372 nM; in assay [5] (read-out: 5-HT2C Ki (95% CI)) it was 1050 nM.

`O=C(NCCCN1CCN(Cc2ccc3c(c2)OCO3)CC1)C1CC2C=CC1C2` (stereo not drawn) [Norbo-26, endo-N-(3-(4-(benzo[d][1,3]dioxol-5-ylmethyl)piperazin-1-yl)propyl)bicyclo[2.2.1]hept-5-ene-2-carboxamide]: in assay [2], the “D2 receptor antagonistic activity IC50 (95% CI, µM)” value is “no activity” and the “D2 receptor antagonistic activity pIC50 (M ± SEM)” value was “no activity”. The “5-HT1A Receptor G-Protein Stimulation Emax (%) ± SEM” value in assay [3] (rat hippocampus homogenate) came to 178 ± 22.6 %. Besides, the EC50 in assay [3] (setting [9]) turned out to be 7500 nM. Besides, the Ki in assay [4] (read-out: 5-HT2A Ki (95% CI)) amounted to 584 nM. Also, in assay [5] (setting [10]), the Ki was 2290 nM.

Consider `O=C(NCCCN1CCN(C(=O)c2ccco2)CC1)C1CC2C=CC1C2` (stereo not drawn) [Norbo-27, Exo-N-(3-(4-(furan-2-carbonyl)piperazin-1-yl)propyl)bicyclo[2.2.1]hept-5-ene-2-carboxamide], for which the IC50 in assay [2] (setting [6]) was found to be 66600 nM. In assay [3] (rat hippocampus homogenate), the “5-HT1A Receptor G-Protein Stimulation EC50 (95% CI, nM)” value is reported as “no activity” and the “5-HT1A Receptor G-Protein Stimulation Emax (%) ± SEM” value was “no activity”. Further, the “5-HT1A Receptor G-Protein Stimulation pEC50” value in assay [3] (setting [12]) is reported as “no activity”. Moreover, in assay [3], the “agonist activity at the 5-HT1A receptor” value is “no agonist activity”. Also, the Ki in assay [4] (read-out: 5-HT2A Ki (95% CI)) came to 1130 nM. Also, the Ki in assay [5] (read-out: 5-HT2C Ki (95% CI)) is 1780 nM.

On to `O=C(NCCCN1CCN(C(=O)c2ccco2)CC1)C1CC2C=CC1C2` (stereo not drawn) [Norbo-28, endo-N-(3-(4-(furan-2-carbonyl)piperazin-1-yl)propyl)bicyclo[2.2.1]hept-5-ene-2-carboxamide], for which, in assay [2], the “D2 receptor antagonistic activity IC50 (95% CI, µM)” value is “no activity” and the “D2 receptor antagonistic activity pIC50 (M ± SEM)” value is “no activity”. Further, the “5-HT1A Receptor G-Protein Stimulation pEC50” value in assay [3] (setting [12]) is given as “no activity”. Further, in assay [3], the “agonist activity at the 5-HT1A receptor” value is listed as “no agonist activity”. Besides, the Ki in assay [4] (read-out: 5-HT2A Ki (95% CI)) is 1070 nM. Also, the Ki in assay [5] (read-out: 5-HT2C Ki (95% CI)) was 3930 nM.

Consider `NC1=N[C@H](O)[C@H]2[C@H]3O[C@]4(O)O[C@@H]([C@@H](O)[C@@]2(N1)[C@@H]4O)[C@]3(O)CO` [tetrodotoxin, reference compound], for which the “effect on contractions induced by 5-HT” value in assay [1] is recorded as “did not affect the contractions by 5-HT”.

For orientation: Emax means the greatest response seen or fitted, relative to the assay's reference.
